Several values for one entry are separate records, joined by “and”; a condition that tells them apart may be missing. Equal values may be shown once.
Tests used:
LOLRI [1] = assay: Pre-emergence action against LOLRI, 1280 g/ha; assay type: in vivo, Lolium rigidum; settings: visual scoring after about 3 weeks vs untreated controls, 100% = plants have died, 0% = like control plants
Procedure, shortened: (§1)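 Activity was scored visually as percent versus untreated controls about 3 weeks after treatment (100% = dead plants, 0% = control-like). Compounds, formulated as wettable powders or emulsion concentrates, were sprayed onto the covering soil over freshly sown seeds in sandy loam, with 0.5% additive and 600 L/ha water.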

KCHSC [2] = assay: Pre-emergence action against KCHSC, 1280 g/ha; assay type: in vivo, Bassia scoparia; settings: scored visually after about 3 weeks vs untreated controls (100% = plants have died)
Procedure, shortened: as §1

MATIN [3] = assay: Pre-emergence action against MATIN, 1280 g/ha; assay type: in vivo, Tripleurospermum inodorum (Matricaria inodora); settings: scored visually after about 3 weeks vs untreated controls (100% = plants have died)
Procedure, shortened: as §1

LOLRI [4] = assay: Pre-emergence action at 320 g/ha against LOLRI; assay type: in vivo, Lolium rigidum; settings: visual scoring after about 3 weeks vs untreated controls
Procedure, shortened: (§2)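 Sow seeds, cover with soil, spray soil surface (WP/EC, 0.5% additive, 600 l/ha water), hold in greenhouse ~3 wk, then rate % activity visually against untreated controls.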

LOLRI [5] = assay: Post-emergence action against LOLRI, 1.28 kg/ha; assay type: in vivo, Lolium rigidum; settings: dosage 1280 g/ha, visual rating about 3 weeks after treatment vs untreated controls
Procedure, shortened: (§3)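 Foliar application at the one-leaf stage: compound as WP or EC in water with 0.5% additive, sprayed at 600 L/ha. Plants are kept about 3 weeks in the greenhouse, then % herbicidal action is estimated visually (100% = death).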

DIGSA [6] = assay: Pre-emergence action against DIGSA, 1280 g/ha; assay type: in vivo, Digitaria sanguinalis; settings: visual scoring after about 3 weeks vs untreated controls, 100% = plants have died, 0% = like control plants
Procedure, shortened: as §1

VIOTR = assay: Pre-emergence action at 320 g/ha against VIOTR; assay type: in vivo, Viola tricolor; settings: dosage 320 g/ha
Procedure, shortened: as §2

ALOMY [7] = assay: Pre-emergence action at 320 g/ha against ALOMY; assay type: in vivo, Alopecurus myosuroides; settings: scored visually after about 3 weeks vs untreated controls (100% = plants have died)
Procedure, shortened: as §2

DIGSA [8] = assay: Post-emergence action against DIGSA, 1.28 kg/ha; assay type: in vivo, Digitaria sanguinalis; settings: dosage 1280 g/ha, visual rating about 3 weeks after treatment vs untreated controls
Procedure, shortened: as §3

POAAN [9] = assay: Post-emergence action against POAAN, 1.28 kg/ha; assay type: in vivo, Poa annua; settings: dosage 1280 g/ha, visual rating about 3 weeks after treatment vs untreated controls
Procedure, shortened: as §3

ALOMY [10] = assay: Pre-emergence action against ALOMY, 1280 g/ha; assay type: in vivo, Alopecurus myosuroides; settings: visual scoring after about 3 weeks vs untreated controls, 100% = plants have died, 0% = like control plants
Procedure, shortened: as §1

ECHGC = assay: Pre-emergence action at 320 g/ha against ECHGC; assay type: in vivo, Echinochloa crus-galli; settings: visual scoring after about 3 weeks vs untreated controls
Procedure, shortened: as §2

DIGSA [11] = assay: Pre-emergence action at 320 g/ha against DIGSA; assay type: in vivo, Digitaria sanguinalis; settings: visual scoring after about 3 weeks vs untreated controls
Procedure, shortened: as §2

STEME [12] = assay: Post-emergence action against STEME, 1.28 kg/ha; assay type: in vivo, Stellaria media; settings: dosage 1280 g/ha, visual rating about 3 weeks after treatment vs untreated controls (100% = plants died)
Procedure, shortened: as §3

STEME [13] = assay: Pre-emergence action against STEME, 1280 g/ha; assay type: in vivo, Stellaria media; settings: scored visually after about 3 weeks vs untreated controls (100% = plants have died)
Procedure, shortened: as §1

VERPE [14] = assay: Pre-emergence action at 320 g/ha against VERPE; assay type: in vivo, Veronica persica; settings: visual scoring after about 3 weeks vs untreated controls
Procedure, shortened: as §2

KCHSC [15] = assay: Post-emergence action against KCHSC, 1.28 kg/ha; assay type: in vivo, Bassia scoparia; settings: dosage 1280 g/ha, visual rating about 3 weeks after treatment vs untreated controls (100% = plants died)
Procedure, shortened: as §3

VERPE [16] = assay: Pre-emergence action against VERPE, 1280 g/ha; assay type: in vivo, Veronica persica; settings: scored visually after about 3 weeks vs untreated controls (100% = plants have died)
Procedure, shortened: as §1

AMARE [17] = assay: Post-emergence action against AMARE, 1.28 kg/ha; assay type: in vivo, Amaranthus retroflexus; settings: dosage 1280 g/ha, visual rating about 3 weeks after treatment vs untreated controls (100% = plants died)
Procedure, shortened: as §3

ECHCG [18] = assay: Pre-emergence action against ECHCG, 1280 g/ha; assay type: in vivo, Echinochloa crus-galli; settings: visual scoring after about 3 weeks vs untreated controls, 100% = plants have died, 0% = like control plants
Procedure, shortened: as §1

AMARE [19] = assay: Pre-emergence action at 320 g/ha against AMARE; assay type: in vivo, Amaranthus retroflexus; settings: visual scoring after about 3 weeks vs untreated controls
Procedure, shortened: as §2

SETVI [20] = assay: Pre-emergence action against SETVI, 1280 g/ha; assay type: in vivo, Setaria viridis; settings: visual scoring after about 3 weeks vs untreated controls, 100% = plants have died, 0% = like control plants
Procedure, shortened: as §1

MATIN [21] = assay: Pre-emergence action at 320 g/ha against MATIN; assay type: in vivo, Tripleurospermum inodorum (Matricaria inodora); settings: visual scoring after about 3 weeks vs untreated controls
Procedure, shortened: as §2

ABUTH [22] = assay: Post-emergence action against ABUTH, 1.28 kg/ha; assay type: in vivo, Abutilon theophrasti; settings: dosage 1280 g/ha, visual rating about 3 weeks after treatment vs untreated controls (100% = plants died)
Procedure, shortened: as §3

POLCO = assay: Pre-emergence action at 320 g/ha against POLCO; assay type: in vivo, Fallopia convolvulus (Polygonum convolvulus); settings: visual scoring after about 3 weeks vs untreated controls
Procedure, shortened: as §2

SETVI [23] = assay: Post-emergence action against SETVI, 1.28 kg/ha; assay type: in vivo, Setaria viridis; settings: dosage 1280 g/ha, visual rating about 3 weeks after treatment vs untreated controls
Procedure, shortened: as §3

POAAN [24] = assay: Pre-emergence action against POAAN, 1280 g/ha; assay type: in vivo, Poa annua; settings: visual scoring after about 3 weeks vs untreated controls, 100% = plants have died, 0% = like control plants
Procedure, shortened: as §1

PHBPU = assay: Pre-emergence action at 320 g/ha against PHBPU; assay type: in vivo; settings: visual scoring after about 3 weeks vs untreated controls
Text: b) Seeds of monocotyledonous and dicotyledonous weed plants and crop plants are placed in plastic or organic planting pots and covered with soil. The compounds of the invention, formulated in the form of wettable powders (WP) or as emulsion concentrates (EC), are then applied onto the surface of the covering soil as aqueous suspension or emulsion with addition of 0.5% additive at a water application rate of 600 l/ha (converted). After the treatment, the pots are placed in a greenhouse and kept under good growth conditions for the trial plants. After about 3 weeks, the effect of the preparations is scored visually in comparison with untreated controls as percentages. For example, 100% activity=the plants have died, 0% activity=like control plants. Tables 13 to 26 below show the effects of selected compounds of the general formula (I) on various harmful plants and at an application rate corresponding to 320 g/ha, which were obtained by the experimental procedure mentioned above.

ECHCG [25] = assay: Post-emergence action against ECHCG, 1.28 kg/ha; assay type: in vivo, Echinochloa crus-galli; settings: dosage 1280 g/ha, visual rating about 3 weeks after treatment vs untreated controls
Procedure, shortened: as §3

ABUTH [26] = assay: Pre-emergence action against ABUTH, 1280 g/ha; assay type: in vivo, Abutilon theophrasti; settings: scored visually after about 3 weeks vs untreated controls (100% = plants have died)
Procedure, shortened: as §1

AMARE [27] = assay: Pre-emergence action against AMARE, 1280 g/ha; assay type: in vivo, Amaranthus retroflexus; settings: scored visually after about 3 weeks vs untreated controls (100% = plants have died)
Procedure, shortened: as §1

SETVI [28] = assay: Pre-emergence action at 320 g/ha against SETVI; assay type: in vivo, Setaria viridis; settings: visual scoring after about 3 weeks vs untreated controls
Procedure, shortened: as §2

VERPE [29] = assay: Post-emergence action against VERPE, 1.28 kg/ha; assay type: in vivo, Veronica persica; settings: dosage 1280 g/ha, visual rating about 3 weeks after treatment vs untreated controls (100% = plants died)
Procedure, shortened: as §3

AVEFA = assay: Pre-emergence action at 320 g/ha against AVEFA; assay type: in vivo; settings: visual scoring after about 3 weeks vs untreated controls
Procedure, shortened: as §2

ALOMY [30] = assay: Post-emergence action against ALOMY, 1.28 kg/ha; assay type: in vivo, Alopecurus myosuroides; settings: dosage 1280 g/ha, visual rating about 3 weeks after treatment vs untreated controls
Procedure, shortened: as §3

MATIN [31] = assay: Post-emergence action against MATIN, 1.28 kg/ha; assay type: in vivo, Tripleurospermum inodorum (Matricaria inodora); settings: dosage 1280 g/ha, visual rating about 3 weeks after treatment vs untreated controls (100% = plants died)
Procedure, shortened: as §3

O=C(COc1nn(-c2ccccc2F)c(-c2ccc(F)nc2)c1Br)O[C@H]1CCOC1=O [VII-064]
Pre-emergence action against LOLRI (LOLRI [1]): 100% | Pre-emergence action against KCHSC (KCHSC [2]): 100% and 90% | Pre-emergence action against MATIN (MATIN [3]): 100% | Pre-emergence action against LOLRI in % (LOLRI [4]): 100% | Post-emergence action against LOLRI (LOLRI [5]): 100% and 90% | Pre-emergence action against DIGSA (DIGSA [6]): 100% | Pre-emergence action against VIOTR in % (VIOTR): 100% | Pre-emergence action at 320 g/ha against ALOMY in % (ALOMY [7]): 100% | Post-emergence action against DIGSA (DIGSA [8]): 100% | Post-emergence action against POAAN (POAAN [9]): 100% | Pre-emergence action against ALOMY (ALOMY [10]): 100% | Pre-emergence action against ECHGC in % (ECHGC): 100% and 90% | Pre-emergence action against DIGSA in % (DIGSA [11]): 100% | Post-emergence action against STEME (STEME [12]): 100% | Pre-emergence action against STEME (STEME [13]): 100% | Pre-emergence action against VERPE in % (VERPE [14]): 100% | Post-emergence action against KCHSC (KCHSC [15]): 90% | Pre-emergence action against VERPE (VERPE [16]): 100% | Post-emergence action against AMARE (AMARE [17]): 90% and 100% | Pre-emergence action against ECHCG (ECHCG [18]): 100% | Pre-emergence action against AMARE in % (AMARE [19]): 100% | Pre-emergence action against SETVI (SETVI [20]): 100% | Pre-emergence action against MATIN in % (MATIN [21]): 100% | Post-emergence action against ABUTH (ABUTH [22]): 90% | Pre-emergence action against POLCO in % (POLCO): 90% | Post-emergence action against SETVI (SETVI [23]): 100% and 90% | Pre-emergence action against POAAN (POAAN [24]): 100% | Pre-emergence action against PHBPU in % (PHBPU): 90% | Post-emergence action against ECHCG (ECHCG [25]): 100% | Pre-emergence action against ABUTH (ABUTH [26]): 90% | Pre-emergence action against AMARE (AMARE [27]): 100% | Pre-emergence action against SETVI in % (SETVI [28]): 100% | Post-emergence action against VERPE (VERPE [29]): 100% | Pre-emergence action against AVEFA in % (AVEFA): 90% | Post-emergence action against ALOMY (ALOMY [30]): 100% | Post-emergence action against MATIN (MATIN [31]): 100% and 90%
